Biological target: T1, histamine H3 receptor (Rattus norvegicus, UniProt Q9QYN8)
T1 construct: from tissue; host or cells: rat striatum (Sprague-Dawley, male, 6 weeks), membrane homogenate
Test: Histamine H3 receptor binding assay ([3H]-Nα-methylhistamine binding to rat striatum homogenate)
Conditions: 1 μmol/L test compound; [3H]-Nα-methylhistamine 1 nmol/L; striata of Sprague-Dawley male rats, 25° C., 1 hour; read-out: Inhibition ratio of [3H]-Nα-methylhistamine binding
Method: To the striata of Sprague-Dawley male rats (6 weeks of age), a 10-fold volume of lysis buffer {50 mmol/L [[…] (Tris)]/HCl (pH 7.4), 5 mmol/L ethylenediaminetetraacetic acid (EDTA), a protease inhibitor mixture [1 mg/mL phenylmethylsulfonyl fluoride (PMSF), 1 μg/mL pepstatin A, 1 μg/mL leupeptin, 1 μg/mL chymostatin]} was added and the striata were homogenized. The resulting homogenate was centrifuged (30,000×g, 4° C., 30 min), and the obtained precipitate was resuspended in a 10-fold volume of lysis buffer, followed by centrifugation under the same condition. To the obtained precipitate, a 3-fold volume of lysis buffer was added to suspend the precipitate, and the resulting tissue homogenate was used for a test.
A test compound was dissolved in an assay buffer [50 mmol/L Tris/HCl (pH 7.4), 5 mmol/L EDTA], and [^3H]-N^α-methylhistamine (1 nmol/L) and the tissue homogenate (20 μg, in terms of protein amount) were added thereto, and then, the mixture was incubated at 25° C. for 1 hour. Then, the reaction was terminated by rapid suction filtration on a glass filter [GF/B: Whatman, previously soaked in 0.3 w/v % polyethylenimine for about 30 min]. Then, the glass filter was washed three times with 3 mL of assay buffer. This glass filter was transferred into a scintillation vial and dried at 60° C. for 30 minutes. Then, 0.5 mL of Ultimagold (Perkin Elmer) was added thereto, and the radioactivity (binding amount of [^3H]-N^α-methylhistamine) was measured using a liquid scintillation counter. The obtained value was used as a binding amount in the presence of the test compound. The same procedure as described above was carried out in the absence of the test compound, and the binding amount of [^3H]-N^α-methylhistamine obtained at this time was used as a binding amount in the absence of the test compound. Further, the binding amount of [^3H]-N^α-methylhistamine obtained in the presence of 10 μmol/L thioperamide was used as a non-specific binding amount. An inhibitory action of [^3H]-N^α-methylhistamine binding was represented by an inhibition ratio in terms of 1 μmol/L of the test compound calculated by the following Equation (1).
Inhibition ratio(%)={1−[(Binding amount in the presence of test compound)−(Non-specific binding amount)]/[(Binding amount in the absence of test compound)−(Non-specific binding amount)]}×100 (1)

T1 sequence (Q9QYN8 whole entry): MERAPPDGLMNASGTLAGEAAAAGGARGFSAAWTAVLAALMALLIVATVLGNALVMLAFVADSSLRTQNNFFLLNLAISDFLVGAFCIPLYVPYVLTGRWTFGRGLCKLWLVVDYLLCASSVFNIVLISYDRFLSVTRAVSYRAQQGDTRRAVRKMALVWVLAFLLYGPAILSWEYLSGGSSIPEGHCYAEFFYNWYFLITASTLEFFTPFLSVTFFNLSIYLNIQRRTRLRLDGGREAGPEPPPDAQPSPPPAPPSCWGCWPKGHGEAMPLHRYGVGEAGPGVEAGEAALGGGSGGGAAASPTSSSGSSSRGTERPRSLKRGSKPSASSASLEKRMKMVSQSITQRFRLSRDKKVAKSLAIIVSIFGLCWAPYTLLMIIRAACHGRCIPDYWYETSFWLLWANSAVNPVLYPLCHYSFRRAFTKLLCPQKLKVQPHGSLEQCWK

| SMILES | inhibition at 1 µM |
| --- | --- |
| CC1CCCN1CCCN1CCN(CCN2C[C@H](C)C[C@H](C)C2)C1=C(C#N)C#N (relative stereo) [Compound 20, {1-[2-(Cis-3,5-dimethylpiperidino)ethyl]-3-[3-(2-methylpyrrolidin-1-yl)propyl]imidazolidin-2-ylidene}malononitrile] | ≥ 80% |
| N#CC(C#N)=C(NCCCN1CCCCC1)NCCCN1CCCCC1 [Compound 2, [Bis(3-piperidinopropylamino)methylene]malononitrile] | ≥ 80% |
| N#CC(C#N)=C1N(CCN2CCCCC2)CCN1CCN1CCCCC1 [Compound 5, [1,3-Bis(2-piperidinoethyl)imidazolidin-2-ylidene]malononitrile] | ≥ 80% |
| N#CC(C#N)=C1N(CCCCN2CCCCC2)CCN1CCCN1CCCCC1 [Compound 8, [1-(4-Piperidinobutyl)-3-(3-piperidinopropyl)imidazolidin-2-ylidene]malononitrile] | ≥ 80% |
| N#CC(C#N)=C1N(CCCCN2CCCCC2)CCN1CCCCN1CCCCC1 [Compound 9, [1,3-Bis(4-piperidinobutyl)imidazolidin-2-ylidene]malononitrile] | ≥ 80% |
| CC1CC(C)CN(CCN2CCN(CCCN3CCCCC3)C2=C(C#N)C#N)C1 (centres unmarked) [Compound 13, {1-[2-(3,5-Dimethylpiperidino)ethyl]-3-(3-piperidinopropyl)imidazolidin-2-ylidene}malononitrile] | ≥ 80% |
| CC1CC(C)CN(CCCN2CCN(CCN3CC(C)CC(C)C3)C2=C(C#N)C#N)C1 (centres unmarked) [Compound 17, {1-[2-(3,5-Dimethylpiperidino)ethyl]-3-[3-(3,5-dimethylpiperidino)propyl]imidazolidin-2-ylidene}malononitrile] | ≥ 80% |
| C[C@@H]1C[C@H](C)CN(CCN2CCN(CCCN3CCCC3)C2=C(C#N)C#N)C1 [Compound 18, {1-[2-(Cis-3,5-dimethylpiperidino)ethyl]-3-[3-(pyrrolidin-1-yl)propyl]imidazolidin-2-ylidene}malononitrile] | ≥ 80% |
| C[C@@H]1C[C@H](C)CN(CCN2CCN(CCCN3CC=CCC3)C2=C(C#N)C#N)C1 [Compound 27, {1-[3-(1,2,3,6-Tetrahydropyridin-1-yl)propyl]-3-[2-(cis-3,5-dimethylpiperidino)ethyl]imidazolidin-2-ylidene}malononitrile] | ≥ 80% |
| CC1CCCN1CCCN1CCN(CCN2CCCCC2)C1=C(C#N)C#N (centres unmarked) [Compound 33, {1-[3-(2-Methylpyrrolidin-1-yl)propyl]-3-(2-piperidinoethyl)imidazolidin-2-ylidene}malononitrile] | ≥ 80% |
| N#CC(C#N)=C1N(CCCN2CCC(C#N)CC2)CCN1CCN1CCCCC1 [Compound 40, {1-[3-(4-Cyanopiperidino)propyl]-3-(2-piperidinoethyl)imidazolidin-2-ylidene}malononitrile] | ≥ 80% |
| CC1CC(C)CN(CCN2CCN(CCCN3CCC(C#N)CC3)C2=C(C#N)C#N)C1 (centres unmarked) [Compound 42, {1-[3-(4-Cyanopiperidino)propyl]-3-[2-(3,5-dimethylpiperidino)ethyl]imidazolidin-2-ylidene}malononitrile] | ≥ 80% |
| N#CC(C#N)=C1N(CCCN2CCCCCC2)CCN1CCN1CCCCC1 [Compound 46, {1-[3-(Azepan-1-yl)propyl]-3-(2-piperidinoethyl)imidazolidin-2-ylidene}malononitrile] | ≥ 80% |
| CCN(CC)CCCN1CCN(CCN2CCCCC2)C1=C(C#N)C#N [Compound 48, [1-(3-Diethylaminopropyl)-3-(2-piperidinoethyl)imidazolidin-2-ylidene]malononitrile] | ≥ 80% |
| CCN(CC)CCN1CCN(CCCN2CCCCC2)C1=C(C#N)C#N [Compound 49, [1-(2-Diethylaminoethyl)-3-(3-piperidinopropyl)imidazolidin-2-ylidene]malononitrile] | ≥ 80% |
| C[C@@H]1CCC[C@H](C)N1CCCN1CCN(CCN2CCCCC2)C1=C(C#N)C#N [Compound 50, {1-[3-(Cis-2,6-dimethylpiperidino)propyl]-3-(2-piperidinoethyl)imidazolidin-2-ylidene}malononitrile Difumarate] | ≥ 80% |

| SMILES | inhibition at 1 µM |
| --- | --- |
| N#CC(C#N)=C1N(CCCN2CCc3ccccc3C2)CCN1CCN1CCCCC1 [Compound 52, {1-[3-(1,2,3,4-Tetrahydroisoquinolin-2-yl)propyl]-3-(2-piperidinoethyl)imidazolidin-2-ylidene}malononitrile] | ≥ 80% |
| N#CC(C#N)=C1N(CCCN2CCCCC2)CCN1CCN1CCc2ccccc2C1 [Compound 53, {1-[2-(1,2,3,4-Tetrahydroisoquinolin-2-yl)ethyl]-3-(3-piperidinopropyl)imidazolidin-2-ylidene}malononitrile] | ≥ 80% |
| CC1CCCN1CCN1CCN(CCCN2CCCC2)C1=C(C#N)C#N (centres unmarked) [Compound 54, {1-[2-(2-Methylpyrrolidin-1-yl)ethyl]-3-[3-(3-pyrrolidin-1-yl)propyl]imidazolidin-2-ylidene}malononitrile] | ≥ 80% |
| N#CC(C#N)=C1N(CCCNC2CCCCC2)CCN1CCN1CCCCC1 [Compound 62, [1-(3-Cyclohexylaminopropyl)-3-(2-piperidinoethyl)imidazolidin-2-ylidene]malononitrile] | ≥ 80% |
| N#CC(C#N)=C1N(CCCN2CCCCC2)CCN1CCNC1CCCCC1 [Compound 63, [1-(2-Cyclohexylaminoethyl)-3-(3-piperidinopropyl)imidazolidin-2-ylidene]malononitrile Difumarate] | ≥ 80% |
| N#CC(C#N)=C1N(CCCN2CCCCCC2)CCN1CCCN1CCCCCC1 [Compound 66, {1,3-Bis[3-(azepan-1-yl)propyl]imidazolidin-2-ylidene}malononitrile] | ≥ 80% |
| N#CC(C#N)=C1N(CCCN2CC=CCC2)CCN1CCCN1CCCCCC1 [Compound 68, {1-[3-(Azepan-1-yl)propyl]-3-[3-(1,2,3,6-tetrahydropyridin-1-yl)propyl]imidazolidin-2-ylidene}malononitrile] | ≥ 80% |
| N#CC(C#N)=C1N(CCCN2CCCCCC2)CCN1CCCN1CCCC1 [Compound 69, {1-[3-(Azepan-1-yl)propyl]-3-[3-(pyrrolidin-1-yl)propyl]imidazolidin-2-ylidene}malononitrile] | ≥ 80% |
| CC1CC(C)CN(CCCN2CCN(CCCN3CCCCCC3)C2=C(C#N)C#N)C1 (centres unmarked) [Compound 70, {1-[3-(Azepan-1-yl)propyl]-3-[3-(3,5-dimethylpiperidino)propyl]imidazolidin-2-ylidene}malononitrile] | ≥ 80% |
| CN1CCN(CCCN2CCN(CCCN3CCCCC3)C2=C(C#N)C#N)CC1 [Compound 76, {1-[3-(4-Methylpiperazin-1-yl)propyl]-3-(3-piperidinopropyl)imidazolidin-2-ylidene}malononitrile] | ≥ 80% |
| CC1CCCN1CCCN1CCN(CCCN2CCN(C)CC2)C1=C(C#N)C#N (centres unmarked) [Compound 78, {1-[3-(4-Methylpiperazin-1-yl)propyl]-3-[3-(2-methylpyrrolidin-1-yl)propyl]imidazolidin-2-ylidene}malononitrile] | ≥ 80% |
| CC1CCCN(CCCN2CCN(CCCN3CCOCC3)C2=C(C#N)C#N)C1 (centres unmarked) [Compound 80, {1-[3-(3-Methylpiperidino)propyl]-3-(3-morpholinopropyl)imidazolidin-2-ylidene}malononitrile] | ≥ 80% |
| N#CC(C#N)=C1N(CCCN2CCCC2)CCN1CCCN1CCOCC1 [Compound 82, {1-(3-Morpholinopropyl)-3-[3-(pyrrolidin-1-yl)propyl]imidazolidin-2-ylidene}malononitrile] | ≥ 80% |
| N#CC(C#N)=C1N(CCCN2CCCCC2)CCN1CCCN1CCOCC1 [Compound 83, [1-(3-Morpholinopropyl)-3-(3-piperidinopropyl)imidazolidin-2-ylidene]malononitrile] | ≥ 80% |
| CC1CCCN1CCCN1CCN(CCCN2CCOCC2)C1=C(C#N)C#N (centres unmarked) [Compound 85, {1-[3-(2-Methylpyrrolidin-1-yl)propyl]-3-(3-morpholinopropyl)imidazolidin-2-ylidene}malononitrile] | ≥ 80% |
| CC1CCCCN1CCCN1CCN(CCCN2CC=CCC2)C1=C(C#N)C#N (centres unmarked) [Compound 86, {1-[3-(1,2,3,6-Tetrahydropyridin-1-yl)propyl]-3-[3-(2-methylpiperidino)propyl]imidazolidin-2-ylidene}malononitrile] | ≥ 80% |

Source: patent US20090181948A1, “DIAMINE DERIVATIVE” (KYOWA HAKKO KOGYO CO., LTD., priority 2005, published 2009)
